Source: publication PMC4039310 (Molecular Systems Biology, 2013)
Entries after “also recorded” stand apart in the source; their conditions may differ. Read-outs that look alike come from different tables or passages of the source.

Experiments:
[1] = test system: EGFR and ERK phosphorylation in PC9GR, HCC827 T790M and HCC4006 T790M cells; assay: Western blotting of signaling changes after 4 h drug treatment; assay type: cell-based, human
Protocol: Signaling changes were evaluated by western blotting after 4 h treatment. […] In (E and G), equal protein loading was confirmed by β-actin evaluation.
Immunoprecipitation and protein expression analysis
Whole cell lysates were prepared using ice-cold TNN-HS buffer (50 mM HEPES, pH 8.0, 150
protease inhibitor cocktail). Total cellular proteins were quantified using the Bio-Rad protein
assay. For immunoprecipitation, 600 μg of total protein was incubated with 6 μL of mouse
Biotechnology (Santa Cruz, CA) as the control overnight at 4°C with rotation and then incubated
with protein G-agarose beads (Roche, Indianapolis, IN) for 3 hours at 4°C. Beads were washed
five times with TNN-HS buffer, and immunoprecipitated proteins were eluted from beads with
30 μL of 2X SDS-PAGE sample buffer from Bio-Rad (Hercules, CA) at 95°C for 5 minutes.
pThr202/Tyr204-p44/42 MAPK, AKT, pSer473-AKT, and tSRC from Cell Signaling; GRB2,

[2] = test system: patients with leukemia and lung cancer; details: cited from earlier work
EGFR L858R = target: T1, EGFR L858R (Homo sapiens, UniProt P00533, L858R); assay: In vitro kinase inhibition assay (Millipore KinaseProfiler); assay type: biochemical; details: activating point mutation L858R; 0.0001 to 1 μM vs DMSO
T1 construct: purchased Merck Millipore (KinaseProfiler service)
Protocol: (§1) In vitro kinase inhibition assays were performed on the Millipore KinaseProfiler™ platform.
(§2) In vitro kinase assays were conducted using Merck Millipore's KinaseProfiler service according to the protocols detailed at http://www.millipore.com/techpublications/tech1/pf3036.
(§3) Human Phospho-kinase array assay
(§4) PC9 and PC9GR cells were infected with lentivirus expressing shRNA against ARHG5 or scrambled shRNA as control for 48 hours. The relative levels of phosphorylation of 46 kinase phosphorylation sites determination was performed using Human Phospho-Kinase Array Kit (R&D Systems, Minneapolis, MN). Briefly, two-hundred micrograms of total cell lysate protein were incubated with Phospho-Kinase array membranes overnight at 4 C. Detection of proteins was accomplished using the Detection Antibody Cocktail and enhanced […]

EGFR wild type = EGFR wild type (Homo sapiens, UniProt P00533); assay: as above; assay type: biochemical; details: wild-type allele; 0.0001 to 1 μM vs DMSO
Protocol: as §1, §2, §3, §4

[3] = target: proteins in total cell lysates of PC9 cells (Homo sapiens, UniProt P00533, DEL746-750); assay: Midostaurin affinity chromatography (drug pulldown) with LC-MS/MS, PC9 lysate; assay type: binding
Protocol: (§5) LC-MS/MS analysis was performed in duplicate on a LTQ-Orbitrap MS (Thermo Fisher).
(§6) RNA isolated from PC9 and PC9GR cells were infected with either ARHG5 shRNA or scrambled shRNA and cDNA transcription using RNeasy Mini kit and QuantiTect Reverse Transcription kit from Qiagen (Valencia, CA). Human ARHG5 probe and human 18s rRNA endogenous control were purchased from Applied Biosystems (Foster City, CA). Quantitative real-time PCR reactions were run in triplicate on MicroAmp® Optical 96-well reaction plates with barcode using the 7900HT Fast real-time PCR system, and data were analyzed with 2.3 SDS software and normalized by 18s endogenous control. […]
(§7) aminomethylbenzoic acid in the presence of HATU and diisopropylethylamine and subsequent […]
(§8) on NHS-activated Sepharose 4 Fast Flow resin (GE Healthcare Bio-Sciences AB, Uppsala, […]
(§9) Affinity chromatography was performed as reported previously with total cell lysates of PC9 and PC9GR cells containing each 5.5 mg of protein.
(§10) Eluates were loaded on a SDS-PAGE gel, briefly run into the gel, and excised as a single piece before in-gel trypsin digestion and sample processing, which was done as described (Rix et al, LC-MS/MS analysis was performed in duplicate on a LTQ-Orbitrap MS (Thermo Fisher). […]
(§11) searching with the Mascot (Matrix Science) and Sequest (Thermo Fisher) search engines.
(§12) Kinase inhibition analysis […]

[4] = test system: proteins in total cell lysates of PC9GR cells; assay: Midostaurin affinity chromatography (drug pulldown) with LC-MS/MS, PC9GR lysate; assay type: binding, human; details: PC9 and PC9GR lysates
Protocol: as §5, §6, §7, §8, §9, §10, §11, §12

[5] = target: T2, proteins in total cell lysates of PC9GR cells (Homo sapiens, UniProt P00533, DEL746-750/T790M); assay: as above; assay type: binding; details: PC9GR lysate, E746-A750+T790M EGFR
T2 construct: endogenous in cells; host or cells: PC9GR
Protocol: as §5, §6, §7, §8, §9, §10, §11, §12

PC9 cells = test system: PC9 cells
Protocol: (§13) The ON-TARGET plus Smart pool custom siRNA library included siRNA pools containing four different siRNAs. This custom library and the ON-TARGET plus Non-Targeting Pool, non-targeting siRNA #4, and GAPD control siRNA pool were purchased from Thermo Scientific (Dharmacon). siRNA was delivered in triplicate to each well using a Precision^TM microplate liquid handler (BioTek). Plates were incubated for 5 days for cell viability assay and for 48 h for the pERK and pAKT in-cell western analyses. […] Viability and signaling changes were determined for each target gene after normalization on ON-TARGET plus Non-Targeting pool control siRNA. […]
(§14) The cell viability assay (CellTiter-Glo) was conducted according to the recommendations for the CellTiter-Glo Luminescent Cell Viability Assay from Promega (Madison, WI). Cells were plated […]
(§15) and either transfected with siRNA or infected with […] of lentiviruses plus 6 µg/mL polybrene (Sigma) for 5 days. Cell-Titer Glo reagent was added to each well, and luminescence was recorded using Victor plate reader from PerkinElmer (Walthom, MA). […]

HCC827ER cells = test system: HCC827ER cells
Protocol: as §13, §14, §15

PC9GR cells = test system: PC9GR cells
Protocol: as §13, §14, §15

HCC4006ER cells = test system: HCC4006ER cells
Protocol: as §13, §14, §15

HCC827 cells = test system: HCC827 cells
Protocol: as §13, §14, §15

HCC4006 cells = test system: HCC4006 cells
Protocol: as §13, §14, §15

Question: With `C#Cc1cccc(Nc2ncnc3cc(OCCOC)c(OCCOC)cc23)c1` [Erlotinib, erlotinib] as the molecule, how does the “effects on EGFR and downstream ERK phosphorylation” value (“effects” below) [1] read?
Answer: modest effects

Question: Which tolerability ([2]; leukemia, ref Marshall et al, 2005) does the source give for `C[C@]12O[C@H](C[C@]1(O)CO)n1c3ccccc3c3c4c(c5c6ccccc6n2c5c31)CNC4=O` [CEP-701, lestaurtinib] here?
Answer: good tolerability

Question: And the “effects” value [1]?
Answer: little to modest effects; also recorded: reductions in ERK phosphorylation at concentrations below those necessary for inhibition of EGFR phosphorylation

Question: With `CO[C@@H]1[C@H](N(C)C(=O)c2ccccc2)C[C@H]2O[C@]1(C)n1c3ccccc3c3c4c(c5c6ccccc6n2c5c31)C(=O)NC4` [Midostaurin, midostaurin] as the molecule, how does the “effect on EGFR kinase activity” value (EGFR L858R) read?
Answer: no substantial effect

Question: What about the “effect on EGFR kinase activity” value (EGFR wild type) of the same molecule?
Answer: no substantial effect

Question: And the “EGFR binding to immobilized midostaurin” value [3]?
Answer: no EGFR associated with midostaurin

Question: And the tolerability ([2]; patients with leukemia and lung cancer, ref Monnerat et al, 2004, Fischer et al, 2010)?
Answer: well tolerated

Question: What about the “protein kinases observed in total in midostaurin pulldown” value [4] of the same molecule?
Answer: 71

Question: And the “EGFR binding to immobilized midostaurin” value [5]?
Answer: EGFR bound to midostaurin

Question: What about the “effects” value ([1]; western blotting after 4 h, three T790M EGFR cell lines) of the same molecule?
Answer: modest effects

Question: Which “PC9_Viability Viability %” value (PC9 cells) does the source give for TITIN here?
Answer: 69.56%

Question: And the “HCC827ER_Viability Viability %” value (HCC827ER cells)?
Answer: 73.41%

Question: What about the “PC9GR_Viability Viability %” value (PC9GR cells) of the same molecule?
Answer: 62.56%

Question: What about the “HCC4006ER_Viability Viability %” value (HCC4006ER cells) of the same molecule?
Answer: 71.94%

Question: What about the “HCC827_Viability Viability %” value (HCC827 cells) of the same molecule?
Answer: 67.29%

Question: And the “HCC4006_Viability Viability %” value (HCC4006 cells)?
Answer: 63.88%
